Test system: Jurkat cells
Experiment: Effect of compounds on growth of human leukemic T-cell line Jurkat cells (Trypan Blue live cell count)
Assay type: cell-based
Conditions: for IC50: Homo sapiens, growth of Jurkat cells, viable cell count; for cancer cell growth inhibiting effect compared with phytol: Jurkat cells, 24-72 hours
Experimental: Human leukemic T-cell line Jurkat cells were obtained from the RIKEN BioResource Research Center (Tsukuba-shi, Ibaraki Prefecture). The cells were cultured in RPMI1640 medium (Wako Pure Chemical Industries, Ltd., Osaka-shi, Osaka Prefecture) containing 10% fetal bovine serum (Thermo Fisher Scientifics, K.K., MA, USA), 100 U/mL penicillin and 100 μg/mL spletomycin (both Life Technologies, Carlsbad, CA, USA) at 37° C. in a 95% air-5% CO2 environment.
Jurkat cells were adjusted to 1×10^5 cells/mL and seeded in 24-well multi-plates (Thermo Fisher Scientifics K. K.) by 500 μL/well. After seeding, phytol, aminophytol, amidophytol, methylaminophytol, hexylaminophytol, and acetamidophytol were adjusted with distilled water to a final concentration of 10 μM, 25 μM, and 50 μM respectively, and then added. Note that no compound is added to a control. After adding respective compounds, the cells were stained with Tripan Blue (Life Technologies) after 24, 48, and 72 hours, and live cells were counted using a hemocytometer.
A horizontal axis represents culture time (hours) and a vertical axis represents the number of viable cells (×10^5 cells/mL). “Cont” in the figures represents the control, and “10 μM,” “25 μM,” and “50 μM” represent concentration. FIG. 1 is for phytol; FIG. 2 is for aminophytol; FIG. 3 is for amidophytol; FIG. 4 is for monomethylaminophytol; FIG. 5 is for monohexylaminophytol; and FIG. 6 is for acetamidophytol.

[1] = after 24 hours at a concentration of 25 μM

Row | SMILES | IC50 | cancer cell growth inhibiting effect compared with phytol (10, 25, 50 μM) | viable cells [1] | viable cells (at a concentration of 25 μM) | viable cells (at a concentration of 50 μM) | growth of Jurkat cells (cancerous cells) (10, 25, 50 μM, 24, 48, 72 hours, concentration-dependence observed) | viable cells (after 72 hours at a concentration of 50 μM)
1 | CCCCCCNC/C=C(\C)CCC[C@H](C)CCC[C@H](C)CCCC(C)C (racemic) [monohexylaminophytol, (E)-N-hexyl-3,7,11,15-tetramethylhexadec-2-en-1-amine] | 8.5 µM | more effect than phytol | few cells survived |  |  |  | 
2 | CC(=O)NC/C=C(\C)CCC[C@H](C)CCC[C@H](C)CCCC(C)C (racemic) [acetamidophytol, (E)-N-(3,7,11,15-tetramethylhexadec-2-en-1-yl)acetamide] | 21.2 µM | more effect than phytol |  | viable cells could still be identified | few cells survived |  | 
3 | CNC/C=C(\C)CCC[C@H](C)CCC[C@H](C)CCCC(C)C (racemic) [monomethylaminophytol, (E)-N,3,7,11,15-pentamethylhexadec-2-en-1-amine] | 6.6 µM | more effect than phytol | few cells survived |  |  |  | 
4 | C/C(=C\CO)CCC[C@H](C)CCC[C@H](C)CCCC(C)C [phytol, reference compound] | 29.8 µM |  |  |  |  | inhibited the growth | viable cells could still be identified
5 | C/C(=C\CN)CCC[C@H](C)CCC[C@H](C)CCCC(C)C (racemic) [aminophytol, (E)-3,7,11,15-tetramethylhexadec-2-en-1-amine] | 3.8 µM | more effect than phytol | few cells survived |  |  |  | 
6 | C/C(=C\C(N)=O)CCC[C@H](C)CCC[C@H](C)CCCC(C)C (racemic) [amidophytol, (E)-3,7,11,15-tetramethylhexadec-2-enamide] | 9.6 µM | more effect than phytol | few cells survived |  |  |  | 

Source: US12338198B2, “Cancer cell growth inhibiting composition and processed food” (HAGIHARA FARM PRODUCTION INSTITUTE CO., LTD., priority 2019, dated 2025)
